From patent US8937052B2, “Therapeutic protocols using hyaluronan” (Alchemia Oncology Pty Limited, priority 2005, dated 2015)
Counter-ions that a name gives are not always drawn.

Legend:
[1] = In situ perfusion: survival until experimental end-point; format: in vivo, Wistar rats; conditions: irinotecan 60 mg/kg single i.v.
[2] = irinotecan 60 mg/kg i.v. (HyCAMP 26.6/60); 90 minute time point
[3] = irinotecan 30 mg/kg i.v. (HyCAMP 26.6/30); 120 min
[4] = irinotecan 30 mg/kg i.v.
[5] = biological target: T1, tumour cell endogenous beta-glucuronidase (Homo sapiens, UniProt P08236); test: Endogenous beta-glucuronidase activity in tumour cell lysates incubated overnight with HA, compared to samples not containing hyaluronan; format: biochemical; conditions: modelled from ≧2 μg of HA per μg tumour cell protein and 0.135 ng protein/cell
T1 construct: Activity of Endogenous Beta-Glucuronidase in Tumor Cells In Vitro; endogenous in cells; host or cells: HCT-116, LIM-1215, LIM-2099, SK-CO1, SW-1222, HT-29, SW-620, MSTO-211H, MDA-MB-468, MDA-MB-435 lysates
T1 sequence (P08236 23-651): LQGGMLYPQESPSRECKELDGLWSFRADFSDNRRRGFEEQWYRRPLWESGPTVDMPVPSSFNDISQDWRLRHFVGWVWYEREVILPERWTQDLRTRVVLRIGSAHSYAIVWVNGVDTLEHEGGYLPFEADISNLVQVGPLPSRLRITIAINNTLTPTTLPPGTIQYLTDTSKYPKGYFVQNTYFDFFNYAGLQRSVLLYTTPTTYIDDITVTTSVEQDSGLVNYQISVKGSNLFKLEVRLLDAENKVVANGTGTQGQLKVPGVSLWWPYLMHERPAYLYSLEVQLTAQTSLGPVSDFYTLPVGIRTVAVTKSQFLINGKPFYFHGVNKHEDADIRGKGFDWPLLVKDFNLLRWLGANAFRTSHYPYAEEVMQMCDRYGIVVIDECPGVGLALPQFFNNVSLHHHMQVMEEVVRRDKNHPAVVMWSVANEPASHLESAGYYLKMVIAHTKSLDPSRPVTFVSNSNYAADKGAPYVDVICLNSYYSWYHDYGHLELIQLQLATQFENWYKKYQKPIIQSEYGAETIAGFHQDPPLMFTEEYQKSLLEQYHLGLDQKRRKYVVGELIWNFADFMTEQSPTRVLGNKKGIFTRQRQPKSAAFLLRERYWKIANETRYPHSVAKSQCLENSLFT
Experimental: Stocks of the tumor cell lysates (0.8 mg protein/ml) were prepared from the original cell lysates. The hyaluronan stock of 10 mg/ml (10 kDa & 860 kDa) was diluted with potassium phosphate buffer to achieve 8 mg/ml, 3.2 mg/ml, 1.6 mg/ml, 0.4 mg/ml, 0.2 mg/ml, 0.04 mg/ml, 0.02 mg/ml and 0.0008 mg/ml of hyaluronan. The 25 mg/ml of <2 kDa HA was diluted further with potassium phosphate buffer to achieve 8 mg/ml, 3.2 mg/ml, 1.6 mg/ml, 0.4 mg/ml, 0.2 mg/ml, 0.04 mg/ml, 0.02 mg/ml and 0.0008 mg/ml of hyaluronan. The assay samples were prepared by aliquoting 125 μl of the different dilutions of hyaluronan to an Eppendorf tube containing 125 μl of 0.8 mg protein/ml cell lysates of the following cell lines; HCT-116, LIM-1215, LIM-2099, SK-CO1, SW-1222, HT-29, SW-620, MSTO-211H, MDA-MB-468 and MDA-MB-435. […] On completion of the incubation, the samples were thoroughly mixed by repeated invert mixing (˜20 times) after which the beta-glucuronidase was quantified using the 96-well-plate method.
The assay was performed in the wells of a black clear-bottom 96-well-plate where 50 μL of the tumour cell lysates (20 μg protein) were added to the wells and 50 μL of 75 mM of potassium phosphate buffer was used as the control blanking well. […] On completion of the incubation, 50 μL of stop buffer was added and the plate was read at 350 nm excitation and 450 nm emission on a Fluostar Optima plate reader.

Carboxylesterase = Carboxylesterase activity in tissue homogenates of the liver and the GI-tract; format: biochemical
Text: Carboxylesterase • 2. beta-glucuronidase
Tissue homogenates of the liver and the GI-tract were used as the source of each enzyme. […] In addition to this mechanism, inhibition of beta-glucuronidase in the lumen of the GI tract would prevent the generation of SN-38 from SN-38G.

[6] = in vivo
Text: HA. […] All body organs and fluids were removed, weighed and [^3H] radioactivity quanitated using β-scintillation counting.

HA per cell resulting in stimulation of endogenous beta-glucuronidase activity [5] [pg HA/cell] | HA per tumour cell [6] | HA that would accumulate per gram of tumour [6] | Compound | survival until experimental end-point [1] | cumulative biliary excretion of CPT-11 [2] [µg] | cumulative intestinal exsorption of CPT-11 [3] [µg] | quantities of SN-38 found in the spleen and lung [4] | effect on carboxylesterase activity (Carboxylesterase)
– | – | – | CCc1c2c(nc3ccc(OC(=O)N4CCC(N5CCCCC5)CC4)cc13)-c1cc3c(c(=O)n1C2)COC(=O)[C@]3(O)CC [CPT-11, Irinotecan hydrochloride] | only one rat survived | 1388 | 525 | could not be detected | –
≥ 270 | 51.6 pg of HA/cell | approximately 51.6 mg | hyaluronan [HA] | – | – | – | – | did not affect the activity of carboxylesterase
